Assay results published in US8114875B2, “Substituted N-heterocyclic compounds and their use as dopamine D3 receptor ligands” (Abbott GmbH & Co. KG, priority 2004, dated 2012).

Key:
[1] = target: T1, human dopamine D3 receptors (Homo sapiens, UniProt P35462); assay: Dopamine D3 receptor binding, displacement of [125I]-iodosulpride; details: membranes from HEK-293 cells with stably expressed human D3 receptors; 0.1 nM [125I]-iodosulpride; 25° C., 60 minutes
T1 construct: expressed in transfected cells; host or cells: HEK-293
T1 sequence (P35462 whole entry): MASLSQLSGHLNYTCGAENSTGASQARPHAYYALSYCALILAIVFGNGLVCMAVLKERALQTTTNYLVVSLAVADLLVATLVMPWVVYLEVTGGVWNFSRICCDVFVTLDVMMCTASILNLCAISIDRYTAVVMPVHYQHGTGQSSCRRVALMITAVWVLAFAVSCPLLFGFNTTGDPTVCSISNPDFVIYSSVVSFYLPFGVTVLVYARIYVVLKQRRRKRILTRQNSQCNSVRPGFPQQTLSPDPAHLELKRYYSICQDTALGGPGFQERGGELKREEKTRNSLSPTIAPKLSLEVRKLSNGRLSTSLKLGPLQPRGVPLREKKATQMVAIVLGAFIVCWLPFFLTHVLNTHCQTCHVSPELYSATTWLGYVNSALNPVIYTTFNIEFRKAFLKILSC
Protocol: (§1) The substance to be tested was dissolved either in methanol/Chremophor® (BASFAG) or in dimethyl sulfoxide and then diluted with water to the desired concentration.
The mixture (0.250 ml) was composed of membranes from ˜106 HEK-293 cells with stably expressed human dopamine D3 receptors, 0.1 nM [^125I]-iodosulpride and incubation buffer (total binding) or with additional test substance (inhibition plot) or 1 μM spiperone (nonspecific binding). Triplicate mixtures were carried out.
The incubation buffer contained 50 mM Tris, 120 mM NaCl, 5 mM KCl, 2 mM CaCl2, 2 mM MgCl2 and 0.1% bovine serum albumin, 10 μM quinolone, 0.1% ascorbic acid (prepared fresh each day). The buffer was adjusted to pH 7.4 with HCl.
(§2) Measurement and Evaluation:
(§3) After incubation at 25° C. for 60 minutes, the mixtures were filtered under vacuum through Whatman GF/B glass fiber filters using a cell harvester. The filters were transferred by a filter transfer system into scintillation vials. After addition of 4 ml of Ultima Gold® (Packard), the samples were shaken for one hour and then the radioactivity was counted in a beta counter (Packard, Tricarb 2000 or 2200CA). The cp values were converted into dpm by means of a standard quench series with the aid of the instrument's own program.
(§4) Evaluation of the inhibition plots took place by iterative nonlinear regression analysis using the Statistical Analysis System (SAS) similar to the “LIGAND” program described by Munson and Rodbard.

[2] = target: T2, human dopamine D2L receptors (long isoform) (Homo sapiens, UniProt P14416); assay: Dopamine D2L receptor binding, displacement of [125I]-iodospiperone; details: ratio of Ki values from D3 and D2L binding assays, HEK-293 membranes
T2 construct: expressed in transfected cells; host or cells: HEK-293
T2 sequence (P14416 whole entry, canonical isoform): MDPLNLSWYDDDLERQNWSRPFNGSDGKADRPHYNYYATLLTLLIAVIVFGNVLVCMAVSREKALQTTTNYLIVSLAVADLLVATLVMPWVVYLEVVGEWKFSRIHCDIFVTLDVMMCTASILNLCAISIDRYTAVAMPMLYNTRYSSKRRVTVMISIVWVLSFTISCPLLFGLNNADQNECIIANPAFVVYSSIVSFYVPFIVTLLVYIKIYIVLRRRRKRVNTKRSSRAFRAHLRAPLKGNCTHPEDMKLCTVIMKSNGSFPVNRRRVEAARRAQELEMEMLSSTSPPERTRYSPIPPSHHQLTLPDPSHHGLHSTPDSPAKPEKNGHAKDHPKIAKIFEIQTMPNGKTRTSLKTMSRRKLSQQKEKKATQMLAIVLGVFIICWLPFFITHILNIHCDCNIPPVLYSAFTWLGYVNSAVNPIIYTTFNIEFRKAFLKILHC
Protocol: as §1
The mixture (1 ml) was composed of membranes from ˜10^6 HEK-293 cells with stably expressed human dopamine D2L receptors (long isoform) and 0.01 nM [^1251]-iodospiperone and incubation buffer (total binding) or with additional test substance (inhibition plot) or 1 μM haloperidol (nonspecific binding). Triplicate mixtures were carried out.
The incubation buffer contained 50 mM Tris, 120 mM NaCl, 5 mM KCl, 2 mM CaCl2, 2 mM MgCl2 and 0.1% bovine serum albumin. The buffer was adjusted to pH 7.4 with HCl.
as §2, §3, §4

SMILES | Ki [1] [nM] | Selectivity D3 vs. D2L (footnote: Ki(D2L)/Ki(D3)) [2]
Cc1ccn(CCCCN2CCN(Cc3ccc(Cl)cc3Cl)CC2)c(=O)n1 [Example 4, 1-{4-[4-(2,4-Dichlorobenzyl)piperazin-1-yl]butyl}-4-methyl-1H-pyrimidin-2-one] | 17 | 31
Cc1cn(CCCCN2CCN(Cc3ccc(Cl)c(Cl)c3)CC2)c(=O)[nH]c1=O [Example 10, 1-{4-[4-(3,4-Dichlorobenzyl)piperazin-1-yl]butyl}-5-methyl-1H-pyrimidine-2,4-dione] | 18.1 | 51
Cc1cn(CCCCN2CCN(Cc3ccc(F)cc3Cl)CC2)c(=O)[nH]c1=O [Example 11, 1-{4-[4-(2-Chloro-4-fluorobenzyl)piperazin-1-yl]butyl}-5-methyl-1H-pyrimidine-2,4-dione] | 22.3 | 48

The next compounds have a lower Ki [1] than those just listed; values first:

Ki [1] [nM] | Selectivity D3 vs. D2L (footnote: Ki(D2L)/Ki(D3)) [2] | SMILES
10.6 | 99 | O=c1[nH]c(=O)n(CCCCN2CCN(Cc3ccc(Cl)cc3Cl)CC2)cc1F [Example 5, 1-{4-[4-(2,4-Dichlorobenzyl)piperazin-1-yl]butyl}-5-fluoro-1H-pyrimidine-2,4-dione]
8.9 | 98 | Cc1cn(CCCCN2CCN(Cc3ccc(Cl)cc3Cl)CC2)c(=O)[nH]c1=O [Example 1, 1-{4-[4-(2,4-Dichlorobenzyl)piperazin-1-yl]butyl}-5-methyl-1H-pyrimidine-2,4-dione]
4.6 | 94 | O=c1ccn(CCCCN2CCN(Cc3ccc(Cl)cc3Cl)CC2)c(=O)[nH]1 [Example 2, 1-{4-[4-(2,4-Dichlorobenzyl)piperazin-1-yl]butyl}-1H-pyrimidine-2,4-dione]
3.16 | 204 | O=c1nc(-c2ccccc2)ccn1CCCCN1CCN(Cc2ccc(Cl)cc2Cl)CC1 [Example 3, 1-{4-[4-(2,4-Dichlorobenzyl)piperazin-1-yl]butyl}-4-phenyl-1H-pyrimidin-2-one]
